Laboratory results reported in US20200277246A1, “TREATMENT METHOD, COMPOUNDS, AND METHOD OF INCREASING TRPV2 ACTIVITY” (THE FEINSTEIN INSTITUTE FOR MEDICAL RESEARCH, priority 2015, published 2020).
Values joined by “and” are separate entries in the source; they are usually repeats but may differ in a detail not shown here. Identical values can stand only once. “Also recorded” adds a separate entry of the source.

Legend:
[1] = tested on: FLS from DA rats with PIA; assay: Matrigel transwell invasion assay, FLS from DA rats with PIA (incl. siRNA knock-down); format: cell-based, rat; details: for Reduction of FLS invasion: DA cells, overnight
Experimental: (§1) The in vitro invasiveness of FLS was assayed in a transwell system using Matrigel-coated inserts (BD Biosciences, Franklin Lakes, N.J.), as previously described (Tolboom et al., “Invasiveness of Fibroblast-Like Synoviocytes is an Individual Patient Characteristic Associated with the Rate of Joint Destruction in Patients with Rheumatoid Arthritis,” Arthritis Rheum. 52 (7):1999-2002 (2005); Laragione et al., “The Arthritis Severity Locus Cia5d is a Novel Genetic Regulator of the Invasive Properties of Synovial Fibroblasts,” Arthritis Rheum. 58 (8):2296-2306 (2008), which are hereby incorporated by reference in their entirety). Briefly, 70-80% confluent cells were harvested by trypsin-EDTA digestion, and re-suspended at 2.0×10^4 cells in 500 μl of serum-free DMEM. Cells were placed in the upper compartment of the Matrigel-coated inserts. Where indicated, O1821, LER13, or vehicle was added to the upper chamber. The lower compartment was filled with complete media and the plates were incubated at 37° C. for 24 hours. After 24 hours the upper surface of the insert was wiped with cotton-swabs to remove non-invading cells and the Matrigel layer. The opposite side of the insert was stained with Crystal Violet (Sigma) and the total number of cells that invaded through Matrigel counted at 100× magnification. Experiments were done in duplicate.
Dharmacon SMARTpool siRNA targeting Trpv2, Gapdh, or a non-coding control were purchased from Thermo Scientific (Lafayette, Colo.) and transfected into DA FLS according to the manufacturer's instructions. Cells were then incubated at 37° C. for 72 hours prior to initiating the invasion assays. Knock-down was confirmed with qPCR and Western blot.

[2] = tested on: FLS from a C57BL/6 mouse with KRN serum-induced arthritis; assay: Matrigel transwell invasion assay, mouse FLS; format: cell-based; details: 10 μM, one cell line in triplicate
Experimental: The in vitro invasiveness of FLS was assayed in a transwell system using Matrigel-coated inserts (BD Biosciences, Franklin Lakes, N.J.), as previously described (Tolboom et al., “Invasiveness of Fibroblast-Like Synoviocytes is an Individual Patient Characteristic Associated with the Rate of Joint Destruction in Patients with Rheumatoid Arthritis,” Arthritis Rheum. 52 (7):1999-2002 (2005); Laragione et al., “The Arthritis Severity Locus Cia5d is a Novel Genetic Regulator of the Invasive Properties of Synovial Fibroblasts,” Arthritis Rheum. 58 (8):2296-2306 (2008), which are hereby incorporated by reference in their entirety). Briefly, 70-80% confluent cells were harvested by trypsin-EDTA digestion, and re-suspended at 2.0×10^4 cells in 500 μl of serum-free DMEM. Cells were placed in the upper compartment of the Matrigel-coated inserts. Where indicated, O1821, LER13, or vehicle was added to the upper chamber. The lower compartment was filled with complete media and the plates were incubated at 37° C. for 24 hours. After 24 hours the upper surface of the insert was wiped with cotton-swabs to remove non-invading cells and the Matrigel layer. The opposite side of the insert was stained with Crystal Violet (Sigma) and the total number of cells that invaded through Matrigel counted at 100× magnification. […]

phosphorylated Akt = assay: FLS levels of phosphorylated Akt; format: cell-based
phosphorylated Erk1/2 = assay: FLS levels of phosphorylated Erk1/2; format: cell-based
Trpv1 = Trpv1 (Homo sapiens, UniProt Q8NER1); details: cited from earlier work
cannabinoid receptors = details: cited from earlier work
Trpv2 = biological target: T1, Trpv2 (Rattus norvegicus, UniProt Q9WUD2); assay: Intracellular calcium influx (Fluo-4 NW) in DA FLS; format: cell-based; design: endogenous in cells; host or cells: fibroblast-like synoviocytes (FLS) from DA rats; details: for Intracellular calcium influx vs untreated and vehicle: increasing concentrations, two DA FLS cell lines
T1 sequence (Q9WUD2 1-761): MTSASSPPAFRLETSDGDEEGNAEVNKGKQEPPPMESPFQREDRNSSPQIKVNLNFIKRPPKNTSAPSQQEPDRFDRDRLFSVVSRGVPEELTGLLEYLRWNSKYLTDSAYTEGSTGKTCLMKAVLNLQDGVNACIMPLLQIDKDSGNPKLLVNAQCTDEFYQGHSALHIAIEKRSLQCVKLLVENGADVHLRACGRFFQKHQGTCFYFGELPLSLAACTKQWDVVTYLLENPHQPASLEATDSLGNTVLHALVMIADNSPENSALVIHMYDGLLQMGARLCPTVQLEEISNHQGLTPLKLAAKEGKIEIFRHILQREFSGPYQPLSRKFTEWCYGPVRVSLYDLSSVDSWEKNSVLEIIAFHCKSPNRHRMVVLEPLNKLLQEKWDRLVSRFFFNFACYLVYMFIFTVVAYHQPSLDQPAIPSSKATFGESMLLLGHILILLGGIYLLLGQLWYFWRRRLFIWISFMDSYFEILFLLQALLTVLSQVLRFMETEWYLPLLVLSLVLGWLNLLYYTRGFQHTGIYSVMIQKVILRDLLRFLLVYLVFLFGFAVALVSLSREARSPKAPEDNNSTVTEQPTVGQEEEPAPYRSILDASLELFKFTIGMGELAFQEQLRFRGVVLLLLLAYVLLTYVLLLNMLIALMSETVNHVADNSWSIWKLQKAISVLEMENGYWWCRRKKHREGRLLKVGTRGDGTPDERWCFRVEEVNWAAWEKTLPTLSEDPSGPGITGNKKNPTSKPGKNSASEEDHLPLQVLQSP
Experimental: Intracellular calcium influx was measured using the Fluo-4 NW calcium assay kit (Molecular Probes/Invitrogen) according to the manufacturer's instructions, as previously described (Laragione et al., “CXCL10 and its Receptor CXCR3 Regulate Synovial Fibroblast Invasion in Rheumatoid Arthritis,” Arthritis Rheum. 63 (11):3274-3283 (2011), which is hereby incorporated by reference in its entirety). Briefly, DA FLS were plated at a density of 4,500 cells/well in a 96-well plate (100 μl volume of complete media per well). After cell adhesion the media was changed to serum-free media for overnight culture. Serum-free media was then replaced with 50 μl of dye loading solution, followed by incubation at 37° C. for 30 minutes and a baseline fluorimetric reading. Then, O1821, LER13, or vehicle were added to their respective wells at different concentrations and fluorescence read immediately in a Fluoroskan Ascent Microplate Fluorometer (Thermo Scientific) with settings appropriate for excitation at 494 nm and emission at 516 nm.

FLS = FLS invasion, focused library screen (Table 1); format: cell-based; details: evaluated over 24 hours in vitro
Experimental: as §1

Trpv1, sequence (Q8NER1 whole entry, species assumed): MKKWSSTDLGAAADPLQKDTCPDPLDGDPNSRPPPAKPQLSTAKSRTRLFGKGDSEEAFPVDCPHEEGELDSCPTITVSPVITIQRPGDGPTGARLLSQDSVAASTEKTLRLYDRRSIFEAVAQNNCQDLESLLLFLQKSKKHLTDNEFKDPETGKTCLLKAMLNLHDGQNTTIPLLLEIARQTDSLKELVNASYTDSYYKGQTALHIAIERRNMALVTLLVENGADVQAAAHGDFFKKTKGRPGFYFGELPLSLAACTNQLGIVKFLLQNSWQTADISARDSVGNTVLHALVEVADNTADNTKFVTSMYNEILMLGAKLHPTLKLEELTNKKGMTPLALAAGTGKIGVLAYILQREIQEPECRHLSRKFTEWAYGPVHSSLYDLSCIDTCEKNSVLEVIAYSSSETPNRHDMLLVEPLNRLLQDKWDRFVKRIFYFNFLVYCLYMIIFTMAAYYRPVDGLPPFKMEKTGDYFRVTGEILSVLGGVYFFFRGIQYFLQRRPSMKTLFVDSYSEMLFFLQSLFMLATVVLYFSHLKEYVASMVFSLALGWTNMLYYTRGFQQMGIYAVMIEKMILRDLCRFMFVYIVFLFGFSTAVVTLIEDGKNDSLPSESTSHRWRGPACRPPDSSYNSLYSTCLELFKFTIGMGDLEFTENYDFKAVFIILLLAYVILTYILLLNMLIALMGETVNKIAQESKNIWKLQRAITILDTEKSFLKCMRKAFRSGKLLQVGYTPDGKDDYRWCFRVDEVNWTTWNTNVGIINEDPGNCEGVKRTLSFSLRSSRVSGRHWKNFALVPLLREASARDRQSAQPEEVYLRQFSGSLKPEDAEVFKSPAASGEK

SMILES | Reduction of FLS invasion ([1]; 1 μM) [%] | Reduction of FLS invasion ([1]; 10 μM) [%] | Reduction in invasion vs control vehicle [2] [%] | Levels of phosphorylated Akt (phosphorylated Akt) | Levels of phosphorylated Erk1/2 (phosphorylated Erk1/2) | Stimulation of Trpv1 (Trpv1) | Stimulation of cannabinoid receptors (cannabinoid receptors) | Intracellular calcium influx vs untreated and vehicle (Trpv2) | Suppression of FLS invasion ([1]; 10 μM, non-transfected, siRNA control and siRNA GAPDH DA FLS, listed as LER13) | Suppression of FLS invasion after Trpv2 siRNA knock-down ([1]; siRNA Trpv2 transfected FLS, listed as LER13) | Reduction in invasion vs control vehicle ([2]; listed as LER13) | FLS invasion decreased by (FLS) | Calcium influx higher compared with O1821 (Trpv2; DA FLS) [%] | Calcium influx (Trpv2; measured over 200 seconds, compared with O1821)
C=C(C)[C@@H]1CCC(C)=C[C@H]1c1c(O)cc(C)cc1O [Compound O1821] | 80 | 99.4 | 65 | did not affect | did not affect | does not stimulate | does not stimulate | significant dose-dependent increase; also recorded: significantly increased intracellular calcium influx |  |  |  |  |  | 
C#Cc1cc(O)c(C2C=C(C)CCC2C(=C)C)c(O)c1C1C=C(C)CCC1C(=C)C [Compound 13, (1R,2″R,2R,2″S)-6′-ethynyl-5,5″-dimethyl-2,2″-di(prop-1-en-2-yl)-1,1″,2,2″,3,3″,4,4″-octahydro-[1,1′:3′,1″-terphenyl]-2′,4′-diol] |  |  |  |  |  |  |  | significantly increased intracellular calcium influx | 65% and 60% | non-responsive; also recorded: not responsive or suppressed | 65% and 75% | Decreased by 64% | ~30 | increased (30% greater than O1821)
